From patent US20260335314A1, “CRYSTALLINE SALTS OR AMORPHOUS FORMS OF 2-((1H-PYRAZOL-3-YL)METHYL)-6-((6-AMINOPYRIDIN-2-YL)METHYL)-4-METHYL-4,6-DIHYDRO -5H-THIAZOLO[5',4':4,5]PYRROLO[2,3-D]PYRIDAZIN-5-ONE” (Agios Pharmaceuticals, Inc., priority 2023, published 2026)
In brackets after ≈: the same amount, converted by molar mass.

Assays:
pH solubility in buffers = format: physicochemical; details: for pH (24 h): pH of solution at 24 h
Method: (§1) Solubility samples were prepared by weighing about 10 mg of each salt and adding 1 mL of media and vortexed briefly to obtain suspensions. […] For such instances, the solubility is calculated as greater than (>).
(§2) The sample vials were capped and wrapped in aluminum foil, and placed on a shaker at 37° C. The shaker was set at about 100 rpm and vials were removed at specified time points. The vials were observed, and the supernatants were transferred to Eppendorf tubes and centrifuged at 3K for 10 minutes. The clear supernatants were transferred to HPLC vials. The samples were diluted prior to HPLC analysis using the dilution media by 2× or used without dilution. pH was measured of the 24 hour timepoint after centrifugation using a micro pH probe.
(§3) • pH 2 buffer USP: Mixed 50 mL of 0.2M potassium chloride and 13 mL 0.2M HCl, diluted to 200 mL with water. • pH 4.5 buffer USP: 5.44 g of potassium dihydrogen phosphate was diluted to 1000 mL with water. • pH 6.8 buffer USP: Mixed 50 mL of 0.2M potassium phosphate and 22.4 mL 0.2M sodium hydroxide. Diluted with water to 200 mL. • SGF: 2.0109 g of NaCl was dissolved in water, added 7 mL of conc. HCl and diluted to 1 L. • FeSSIF: 4.0321 g of NaOH and 11.8726 g of NaCl were dissolved in water, added 8.65 mL of glacial acetic acid, adjusted the pH to 5.0 and diluted to 1 L. • FaSSIF: 0.4247 g of NaOH, 3.9548 g of sodium phosphate monobasic monohydrate and 6.1900 g of NaCl were dissolved in water, adjusted the pH to 6.5 and diluted to 1 L.
At each time point, the solution was analyzed by HPLC and residue was vacuum dried and analyzed by XRPD. The pH of the solution was measured at 24 hours.

[1] = Dynamic vapor sorption (moisture uptake); format: physicochemical; details: 25° C., from 5% to 95% relative humidity
Method: Dynamic Vapor Sorption (DVS) was carried out using a TA Instruments Q5000 Dynamic Vapor Sorption analyzer. The instrument was calibrated with standard weights and a sodium bromide standard for humidity. Approximately 10-25 mg of sample was loaded into a metal-coated quartz pan for analysis. […] The movement from one step to the next occurred either after satisfying the equilibrium criterion of 0.01% weight change or, if the equilibrium criterion was not met, after one hour. The percent weight change values were calculated using Microsoft Excel®.

[2] = Kinetic solubility in biorelevant media; format: physicochemical
Method: as §1, §2
as §3, with “adjusted the pH to 5.0 and diluted to 1 L. • FaSSIF:” left out
Kinetic solubility was determined in biorelevant media. At each time point, the solution was analyzed by HPLC. The solid residue was analyzed by XRPD at selected time points. The pH of the solution was measured at 24 hours.

[3] = Physicochemical properties of Form A (summary)
[4] = Pharmacokinetics / absolute bioavailability in male Sprague Dawley rats; format: in vivo
Method: Twenty-one (21) male Sprague Dawley rats (purchased from Shanghai Laboratory Animal Center Co., Ltd., Shanghai, China) were randomized into 7 groups (3 animals per group). The animals fasted overnight, the forms of Compound 1 shown in Table 7 were administered by oral gavage, and the animals were fed 4 hours post-dose.
Blood was serially collected from each animal at 0 (pre-dose), 0.083, 0.25, 0.5, 1, 2, 4, 8, and 24 h post-dose. For each collection, the animal was restrained manually, and approximately 150 μL of blood sample was collected via the tail vein into K2EDTA tubes. Plasma samples were stored at approximately −70° C. until analysis.
To enable the calculation of absolute bioavailability, Compound 1 was formulated as a solution in 10% N-methyl-2-pyrrolidone, 10% Solutol HS 15, and 80% saline and administered at 1 mg/kg as intravenous (IV) bolus dose to a separate group of male Sprague Dawley rats, and blood samples were collected at similar timepoints to those shown above. Further, plasma samples were obtained from the collected samples and stored at approximately −70° C. until analysis.
The concentration of Compound 1 in the plasma samples was determined by LC-MS/MS analysis.
A 20 μL aliquot of each plasma sample was mixed with 200 μL of acetonitrile containing glipizide as an internal standard (40 ng/mL). The resulting mixture was vortexed at 1500 rpm for 2 min and centrifuged at 5800 rpm for 10 min. A 1 μL sample from the supernatant was injected into LC-MS/MS.
LC-MS/MS analysis was conducted on a UPLC/MS-MS (API 6500+) system under the conditions outlined in Table 8
The absolute bioavailability of each form of Compound 1 was determined by dividing the AUCinf of the form in question by the AUCinf obtained historical data by IV administration of Compound 1.

[5] = Stability study of Form A (storage); format: physicochemical

Work on Cn1c2nc(Cc3cc[nH]n3)sc2c2cnn(Cc3cccc(N)n3)c(=O)c21 [Form A] yielded a solubility at 2 h (pH solubility in buffers; 0.1 n hcl, 2 h, 37 °C) of 1970 µg/mL (≈ 5020 µM), a solubility at 24 h (pH solubility in buffers; 0.1 n hcl, 24 h, 37 °C) of 1480 µg/mL (≈ 3770 µM) and a solubility (pH solubility in buffers; pH 2 (USP), 2 h, 37 °C, 120 min) of 0.40 mg/mL (≈ 1020 µM). For the same molecule, the solubility (pH solubility in buffers; pH 2 (USP), 24 h, 37 °C, 1440 min) was 0.30 mg/mL (≈ 764 µM), the “pH (24 h)” value (pH solubility in buffers; pH 2 (USP)) was 2.06 and the solubility (pH solubility in buffers; pH 4.5 (USP), 2 h, 37 °C, 120 min) was 0.06 mg/mL (≈ 153 µM). For the same molecule, the solubility (pH solubility in buffers; pH 4.5 (USP), 24 h, 37 °C, 1440 min) was 0.05 mg/mL (≈ 127 µM), the “pH (24 h)” value (pH solubility in buffers; pH 4.5 (USP)) was 4.32 and the solubility (pH solubility in buffers; pH 6.8 (USP), 2 h, 37 °C, 120 min) was 0.04 mg/mL (≈ 102 µM). For the same molecule, the solubility (pH solubility in buffers; pH 6.8 (USP), 24 h, 37 °C, 1440 min) was 0.07 mg/mL (≈ 178 µM), the “pH (24 h)” value (pH solubility in buffers; pH 6.8 (USP)) was 5.63 and the “moisture uptake (DVS)” value [1] was “about 0.08%”. It also gave a solubility ([2]; FaSSIF pH 6.5, 10 min, 37 °C, 10 min) of 0.12 mg/mL (≈ 306 µM), a solubility ([2]; FaSSIF pH 6.5, 30 min, 37 °C, 30 min) of 0.12 mg/mL (≈ 306 µM) and a solubility ([2]; FaSSIF pH 6.5, 1 h, 37 °C, 60 min) of 0.11 mg/mL (≈ 280 µM). It also gave a solubility ([2]; FaSSIF pH 6.5, 2 h, 37 °C, 120 min) of 0.16 mg/mL (≈ 408 µM), a solubility ([2]; FaSSIF pH 6.5, 4 h, 37 °C, 240 min) of 0.17 mg/mL (≈ 433 µM) and a solubility ([2]; FaSSIF pH 6.5, 24 h, 37 °C, 1440 min) of 0.18 mg/mL (≈ 459 µM). The “pH (24 h)” value ([2]; FaSSIF pH 6.5, pH of solution at 24 h) was 3.91, the solubility ([2]; FeSSIF pH 5.0, 10 min, 37 °C, 10 min) was 0.55 mg/mL (≈ 1400 µM) and the solubility ([2]; FeSSIF pH 5.0, 30 min, 37 °C, 30 min) was 0.10 mg/mL (≈ 255 µM). It also gave a solubility ([2]; FeSSIF pH 5.0, 1 h, 37 °C, 60 min) of 0.23 mg/mL (≈ 586 µM), a solubility ([2]; FeSSIF pH 5.0, 2 h, 37 °C, 120 min) of 0.07 mg/mL (≈ 178 µM) and a solubility ([2]; FeSSIF pH 5.0, 4 h, 37 °C, 240 min) of 0.07 mg/mL (≈ 178 µM). For the same molecule, the solubility ([2]; FeSSIF pH 5.0, 24 h, 37 °C, 1440 min) was 0.03 mg/mL (≈ 76.4 µM), the “pH (24 h)” value ([2]; FeSSIF pH 5.0, pH of solution at 24 h) was 5.74 and the “pH (24 h)” value ([2]; SGF pH 1.2, pH of solution at 24 h) was 0.87. It also gave a solubility at 10 min ([2]; sgf, pH 1.2, SGF pH 1.2, 10 min, 37 °C) of 2850 µg/mL (≈ 7260 µM), a solubility at 0.5 h ([2]; sgf, pH 1.2, SGF pH 1.2, 30 min, 37 °C) of 4960 µg/mL (≈ 12600 µM) and a solubility at 1 h ([2]; sgf, pH 1.2, SGF pH 1.2, 1 h, 37 °C) of 2840 µg/mL (≈ 7240 µM). The solubility at 2 h ([2]; sgf, pH 1.2, SGF pH 1.2, 2 h, 37 °C) was 3240 µg/mL (≈ 8260 µM), the solubility at 4 h ([2]; sgf, pH 1.2, SGF pH 1.2, 4 h, 37 °C) was 3770 µg/mL (≈ 9610 µM) and the solubility at 24 h ([2]; sgf, pH 1.2, SGF pH 1.2, 24 h, 37 °C) was 2880 µg/mL (≈ 7340 µM). The “stability in solvent systems” value ([3]; especially containing water) was “stability in multiple solvent systems”, the stability in humidity ([3]; relative humidity) was “at least 20 % RH” and the particle size ([3]; under microscope) was “below 20 μm”. For the same molecule, the “stability in humidity (water activity)” value ([3]; water activity) was ≥ 0.2, the “absolute bioavailability, comparison with other forms” value ([4]; oral gavage, 10 mg/kg) was “higher than the measured bioavailability of the other forms of Compound 1” and the AUCinf ([4]; oral gavage, 10 mg/kg, fasted overnight, plasma) was 9426 ng·h/mL. For the same molecule, the “Absolute % F” value ([4]; oral gavage, 10 mg/kg, vs historical IV AUCinf, 10 mg/kg) was 60%, the “plasma concentration-time profiles and pharmacokinetic parameters” value ([4]; summary statement) was “favorable plasma concentration-time profiles and pharmacokinetic parameters” and the degradation ([5]; one month under 25±2° C./60±5% RH) was “No degradation was observed”. For the same molecule, the degradation ([5]; one month under 40±2° C./75±5% RH) was “No degradation was observed”.
